Laboratory results as given in the NIST ThermoML archive (doi:10.1021/je050403k).
Where “and” joins values, the source holds several entries; their conditions need not be identical. Equal values may be shown once. Numbers after ± are expanded uncertainties. One block for each molecule: values may come before it.

Settings: Liquid

SMILES: CC(C)=O [acetone]
- vapor or sublimation pressure (364.51 K): 297.1 ± 2.1 kPa and 294.3 ± 2.1 kPa and 296.4 ± 2.1 kPa
- vapor or sublimation pressure (364.52 K): 296.8 ± 2.1 kPa
- vapor or sublimation pressure (365.43 K): 302.56 ± 2.1 kPa

- vapor or sublimation pressure (364.51 K): 1546.2 ± 11 kPa
SMILES: C=C(C)C [2-methylpropene]

- vapor or sublimation pressure (364.51 K): 1510.5 ± 10 kPa
SMILES: C=CCC [1-butene]

- vapor or sublimation pressure (365.43 K): 1213 ± 8.5 kPa
SMILES: C/C=C\C [(Z)-2-butene]

- vapor or sublimation pressure (364.5 K): 1685.6 ± 12 kPa
SMILES: CC(C)C [2-methylpropane]

- vapor or sublimation pressure (364.51 K): 1284.5 ± 8.9 kPa
SMILES: CCCC [butane]

- vapor or sublimation pressure (364.5 K): 1269.2 ± 8.9 kPa
SMILES: C/C=C/C [(E)-2-butene]
